Reference: US10752612B2, “PLK4 inhibitors” (LUDWIG INSTITUTE FOR CANCER RESEARCH LTD, priority 2015, dated 2020)

Columns and labels:
human Aurora A = molecular target: T1, human Aurora A (Homo sapiens, UniProt O14965); assay: Aurora A kinase assay (ADP-Glo); assay type: biochemical
T1 construct: purchased Millipore
T1 sequence (O14965 1-403): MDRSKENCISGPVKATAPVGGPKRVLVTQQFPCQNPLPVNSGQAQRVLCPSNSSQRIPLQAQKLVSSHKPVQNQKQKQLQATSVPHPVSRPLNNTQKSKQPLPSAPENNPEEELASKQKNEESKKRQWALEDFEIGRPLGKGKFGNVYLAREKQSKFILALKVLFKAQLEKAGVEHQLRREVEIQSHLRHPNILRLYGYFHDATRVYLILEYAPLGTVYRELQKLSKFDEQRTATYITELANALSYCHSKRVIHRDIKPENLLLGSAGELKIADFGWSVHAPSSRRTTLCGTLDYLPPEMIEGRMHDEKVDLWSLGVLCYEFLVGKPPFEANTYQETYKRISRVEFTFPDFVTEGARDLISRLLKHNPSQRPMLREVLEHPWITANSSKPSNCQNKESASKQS
Experimental: LRRASLG)+inhibitors arrayed in dose response (added as described above). […] Detection, measurement and data analysis were performed as described above.

Aurora B = molecular target: T2, Aurora B (Homo sapiens, UniProt Q96GD4); assay: Aurora B radiometric kinase assay (Reaction Biology); assay type: biochemical
T2 construct: Reaction Biology (Malvern, Pa.), contract assay
T2 sequence (Q96GD4 whole entry): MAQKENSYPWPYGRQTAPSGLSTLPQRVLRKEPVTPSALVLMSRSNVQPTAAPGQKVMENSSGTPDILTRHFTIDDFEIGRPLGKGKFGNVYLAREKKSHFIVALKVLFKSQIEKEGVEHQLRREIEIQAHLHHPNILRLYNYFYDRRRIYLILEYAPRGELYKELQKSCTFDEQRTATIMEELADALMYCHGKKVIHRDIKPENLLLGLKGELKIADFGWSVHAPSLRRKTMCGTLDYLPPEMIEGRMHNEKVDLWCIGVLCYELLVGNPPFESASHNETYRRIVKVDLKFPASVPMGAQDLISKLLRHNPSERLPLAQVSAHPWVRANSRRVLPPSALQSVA
Experimental: Aurora B and other radiometric kinase assays were performed by Reaction Biology (Malvern, Pa.).

FLT4/VEGFR3 = FLT4/VEGFR3 (Homo sapiens, UniProt P35916); assay: Radiometric kinase assay, off-target FLT4/VEGFR3; assay type: biochemical; settings: off-target from DiscoveRx kinome profiling
Chain of FLT4/VEGFR3 (P35916 25-1363): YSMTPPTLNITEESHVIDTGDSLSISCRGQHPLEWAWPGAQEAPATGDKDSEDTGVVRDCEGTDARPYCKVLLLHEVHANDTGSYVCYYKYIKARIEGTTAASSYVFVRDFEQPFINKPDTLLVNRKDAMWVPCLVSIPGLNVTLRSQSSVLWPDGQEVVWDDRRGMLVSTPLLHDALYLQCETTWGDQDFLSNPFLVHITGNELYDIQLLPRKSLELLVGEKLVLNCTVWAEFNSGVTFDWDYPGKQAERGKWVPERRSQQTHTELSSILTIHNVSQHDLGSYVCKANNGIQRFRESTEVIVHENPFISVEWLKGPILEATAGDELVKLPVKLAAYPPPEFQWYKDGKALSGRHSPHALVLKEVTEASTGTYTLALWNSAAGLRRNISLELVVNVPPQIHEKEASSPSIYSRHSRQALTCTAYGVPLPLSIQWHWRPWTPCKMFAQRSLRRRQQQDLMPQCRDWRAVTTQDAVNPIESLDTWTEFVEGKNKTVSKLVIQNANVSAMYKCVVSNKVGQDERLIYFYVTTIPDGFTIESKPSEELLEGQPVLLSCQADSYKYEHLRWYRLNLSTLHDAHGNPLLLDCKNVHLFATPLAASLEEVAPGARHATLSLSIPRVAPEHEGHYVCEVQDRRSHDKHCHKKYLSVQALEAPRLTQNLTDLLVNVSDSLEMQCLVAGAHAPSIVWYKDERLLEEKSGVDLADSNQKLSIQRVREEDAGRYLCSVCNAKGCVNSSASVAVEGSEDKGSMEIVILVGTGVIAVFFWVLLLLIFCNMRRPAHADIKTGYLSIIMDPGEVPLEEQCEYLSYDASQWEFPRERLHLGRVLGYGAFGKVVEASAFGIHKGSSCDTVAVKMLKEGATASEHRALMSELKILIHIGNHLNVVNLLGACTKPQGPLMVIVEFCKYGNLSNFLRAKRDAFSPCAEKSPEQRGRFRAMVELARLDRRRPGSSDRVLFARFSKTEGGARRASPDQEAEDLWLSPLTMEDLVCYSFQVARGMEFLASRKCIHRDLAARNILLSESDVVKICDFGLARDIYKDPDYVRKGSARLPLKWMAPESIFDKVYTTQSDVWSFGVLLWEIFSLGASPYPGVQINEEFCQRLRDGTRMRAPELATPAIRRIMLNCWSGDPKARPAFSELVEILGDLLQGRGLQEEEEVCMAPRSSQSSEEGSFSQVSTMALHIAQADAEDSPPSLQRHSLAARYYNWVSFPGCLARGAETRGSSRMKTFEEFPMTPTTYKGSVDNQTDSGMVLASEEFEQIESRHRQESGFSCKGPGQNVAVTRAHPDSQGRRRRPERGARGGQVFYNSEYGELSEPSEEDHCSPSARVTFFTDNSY
Experimental: (§1) Aurora B and other radiometric kinase assays were performed by Reaction Biology (Malvern, Pa.). Kinome profiling of centrinone and centrinone-B was performed by DiscoveRx (San Diego, Calif.).

RET = molecular target: T3, RET (Homo sapiens, UniProt P07949); assay: Radiometric kinase assay, off-target RET; assay type: biochemical; settings: off-target from DiscoveRx kinome profiling
T3 construct: Reaction Biology (Malvern, Pa.), contract assay
T3 sequence (P07949 29-1114): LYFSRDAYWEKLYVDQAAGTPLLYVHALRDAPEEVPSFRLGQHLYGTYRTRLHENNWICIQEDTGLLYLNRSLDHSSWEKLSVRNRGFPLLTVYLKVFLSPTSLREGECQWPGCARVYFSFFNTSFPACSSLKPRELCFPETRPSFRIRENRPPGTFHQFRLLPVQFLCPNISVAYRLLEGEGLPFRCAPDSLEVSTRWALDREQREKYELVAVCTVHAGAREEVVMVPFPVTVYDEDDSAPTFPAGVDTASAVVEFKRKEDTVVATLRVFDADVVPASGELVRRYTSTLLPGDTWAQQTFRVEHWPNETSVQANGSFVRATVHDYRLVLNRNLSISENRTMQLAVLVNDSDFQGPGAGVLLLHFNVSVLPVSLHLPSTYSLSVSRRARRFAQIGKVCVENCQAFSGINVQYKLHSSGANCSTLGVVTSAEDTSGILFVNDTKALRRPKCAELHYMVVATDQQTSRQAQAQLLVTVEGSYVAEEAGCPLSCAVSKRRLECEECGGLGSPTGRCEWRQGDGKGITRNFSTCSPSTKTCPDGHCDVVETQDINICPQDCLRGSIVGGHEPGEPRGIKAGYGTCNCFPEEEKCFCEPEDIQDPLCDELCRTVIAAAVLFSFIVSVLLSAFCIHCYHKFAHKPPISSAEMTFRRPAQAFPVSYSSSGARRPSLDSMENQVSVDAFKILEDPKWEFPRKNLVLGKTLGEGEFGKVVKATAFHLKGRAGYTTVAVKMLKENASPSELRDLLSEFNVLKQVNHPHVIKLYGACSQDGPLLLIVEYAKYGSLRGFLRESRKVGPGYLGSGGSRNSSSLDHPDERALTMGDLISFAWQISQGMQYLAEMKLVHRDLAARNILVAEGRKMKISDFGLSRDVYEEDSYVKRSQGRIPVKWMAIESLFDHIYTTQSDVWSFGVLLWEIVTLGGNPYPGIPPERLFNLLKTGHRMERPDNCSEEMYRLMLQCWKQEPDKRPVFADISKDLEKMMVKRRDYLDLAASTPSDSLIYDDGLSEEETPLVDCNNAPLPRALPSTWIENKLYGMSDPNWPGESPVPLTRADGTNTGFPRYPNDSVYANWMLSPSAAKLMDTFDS
Experimental: as §1

JAK2 = molecular target: T4, JAK2 (Homo sapiens, UniProt O60674); assay: Radiometric kinase assay, off-target JAK2; assay type: biochemical; settings: off-target from DiscoveRx kinome profiling
T4 construct: Reaction Biology (Malvern, Pa.), contract assay
T4 sequence (O60674 whole entry): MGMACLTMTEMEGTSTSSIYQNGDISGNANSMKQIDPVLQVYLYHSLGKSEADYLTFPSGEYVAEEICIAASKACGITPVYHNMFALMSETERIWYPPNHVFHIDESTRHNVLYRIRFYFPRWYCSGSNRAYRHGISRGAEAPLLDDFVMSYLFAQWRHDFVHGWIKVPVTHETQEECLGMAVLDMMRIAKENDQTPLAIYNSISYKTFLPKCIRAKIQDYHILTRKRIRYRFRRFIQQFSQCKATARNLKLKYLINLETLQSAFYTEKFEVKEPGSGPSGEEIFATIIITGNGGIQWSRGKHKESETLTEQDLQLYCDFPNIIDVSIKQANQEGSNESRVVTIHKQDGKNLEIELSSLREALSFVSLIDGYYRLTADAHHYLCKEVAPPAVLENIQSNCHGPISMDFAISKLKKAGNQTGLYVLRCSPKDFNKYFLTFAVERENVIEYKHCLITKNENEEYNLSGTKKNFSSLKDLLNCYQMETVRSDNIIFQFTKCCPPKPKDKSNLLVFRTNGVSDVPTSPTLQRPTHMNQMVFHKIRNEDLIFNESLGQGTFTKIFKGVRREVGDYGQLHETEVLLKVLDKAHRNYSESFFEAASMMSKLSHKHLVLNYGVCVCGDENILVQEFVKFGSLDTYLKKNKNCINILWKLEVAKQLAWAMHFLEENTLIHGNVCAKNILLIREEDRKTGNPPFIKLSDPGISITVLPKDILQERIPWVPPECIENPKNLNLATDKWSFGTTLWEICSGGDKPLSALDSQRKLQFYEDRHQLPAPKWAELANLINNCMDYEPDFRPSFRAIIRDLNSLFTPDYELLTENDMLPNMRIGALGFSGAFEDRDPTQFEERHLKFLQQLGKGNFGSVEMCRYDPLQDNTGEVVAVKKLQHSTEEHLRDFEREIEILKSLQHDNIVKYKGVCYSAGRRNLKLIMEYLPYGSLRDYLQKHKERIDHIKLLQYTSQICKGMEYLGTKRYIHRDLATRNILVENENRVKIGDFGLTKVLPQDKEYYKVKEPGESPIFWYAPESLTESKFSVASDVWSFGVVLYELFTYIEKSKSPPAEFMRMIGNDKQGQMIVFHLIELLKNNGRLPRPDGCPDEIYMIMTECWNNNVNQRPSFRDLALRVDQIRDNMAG
Experimental: as §1

centrosomes in cells = assay: Cellular centrosome depletion (cell line not stated); assay type: cell-based; settings: cellular activity, FIG. 1A
Experimental: Centriole depletion assay for compound screening. 1,500 NIH/3T3 cells or 3,500 HCT116 cells were seeded into 96-well SCREENSTAR microplates (Greiner) and treated with inhibitors in dose response, added from DMSO stocks. After 3 days, cells were fixed directly in the wells with 100% methanol (−20° C., 10 minutes). The fixed cells were washed with PBS and stained with primary antibodies against γ-tubulin and, for a subset of compounds, Cep192. Cells were then stained with Alexa-488 donkey anti-mouse and Alexa-647 goat anti-rabbit secondary antibodies. Cells were imaged using either a Model 500 LumaScope (Etaluma) or an EVOS FL (Advanced Microscopy Group/Life Technologies), and centriole depletion was determined by scoring the percentage of cells without visible γ-tubulin/Cep192 foci.

HeLa cells = assay: Analysis of mitosis, HeLa centrin-GFP H2B-RFP; assay type: cell-based, human; settings: centrosome-less HeLa cells
Experimental: (§2) Analysis of mitosis and daughter cell fate. […] Cells were seeded into 96-well cycloolefin plates at 5000 cells/well, 8-10 hours before imaging. Movies were acquired on the CV1000 with a 40×0.95 NA U-PlanApo objective. The imaging chamber was maintained at 37° C. and 5% CO2. Image acquisition and data analysis were performed using CellVoyager software. 20 fields/well were imaged. For HeLa and NIH/3T3 cells, 5×2 μm z-sections in the GFP (25% power, 125 ms, 30% gain) and RFP (25% power, 100 ms, 30% gain) channels were captured in each field, at 5-minute intervals for 24 hours. For RPE1 cells, 5×2 μm z-sections in the GFP (20% power, 100 ms, 30% gain) and RFP (25% power, 100 ms, 30% gain) channels were captured in each field, at 5-minute intervals for 8 hours. To track RPE1 daughter cell fate, imaging was then switched to 3×4 μm z-sections in the RFP channel only, at 10-minute intervals for 48 hours. Mitosis was measured from nuclear envelope breakdown to anaphase onset (or arrest). Results represent combined measurements of 100 mother cells per condition from 2-4 independent experiments.

RPE1 cells = assay: Analysis of mitosis and daughter cell fate, RPE1; assay type: cell-based, human
Experimental: as §2
To study the correlation between mother cell prometaphase duration and daughter cell fate, RPE1 cells co-expressing centrin-GFP and H2B-RFP were seeded into 96-well cycloolefin plates at 5000 cells/well, 8-10 hours before imaging. Cells were treated with 80 nM nocodazole and immediately imaged on the CV1000 system with a 40×0.95 NA U-PlanApo objective. The imaging chamber was maintained at 37° C. and 5% CO2. 20 fields/well were imaged. 5×2 Lm z-sections in the GFP (20% power, 100 ms, 30% gain) and RFP (25% power, 100 ms, 30% gain) channels were captured in each field, at 5-minute intervals for 6 hours. The plate was then removed from the microscope, and wells were washed 6 times with warm medium. The plate was returned to the microscope, and imaging was resumed, capturing 3×4 Lm z-sections in the RFP channel only, at 10-minute intervals for 50 hours. To study the effect of chromosome missegregation on daughter cell fate, cells were treated with 1 LM NMS-P715 to inhibit the spindle assembly checkpoint kinase Mps1, then imaged as described above. Only mitotic events with clear missegregation (lagging chromosomes and subsequent formation of daughter cells with micronuclei) were analyzed. For both experiments, results represent combined measurements of 100 mother cells from 2 independent experiments.

## COc1c(Nc2cc(C)[nH]n2)nc(Sc2ccc(S(=O)(=O)Cc3cccc([N+](=O)[O-])c3F)cc2F)nc1N1CCOCC1 [Centrinone, 2-((2-fluoro-4-((2-fluoro-3-nitrobenzyl)sulfonyl)phenyl)thio)-5-methoxy-N-(5-methyl-1H-pyrazol-3-yl)-6-morpholinopyrimidin-4-amine]
Human Aurora A
  Ki: 171 nM
Aurora B
  Ki: 437 nM
FLT4/VEGFR3
  Ki: 6.29 nM
RET
  Ki: 13.9 nM
JAK2
  Ki: > 150 nM
Centrosomes in cells
  centrosome depletion at: 100 nM
HeLa cells
  cells undergoing persistent mitotic arrest: 24%
  increase in mitotic duration: ~1 h
RPE1 cells; RPE1, FIG. 18A
  percentage of daughters not dividing within 48 hours: 1.5%
RPE1 cells; RPE1, acute treatment
  0-centrosome progeny of pioneer 1-centrosome mothers arrested: 33.0%
  1-centrosome progeny of pioneer 1-centrosome mothers arrested: 25.5%
  progeny of pioneer 0-centrosome mothers arrested: 70%
